Assay results as given in patent EP0414533A1, “Use of iodopropargyl esters of alpha-amino acid derivatives as antimicrobial agents” (ROHM AND HAAS COMPANY, priority 1989, dated 1991).
Where a name gives a salt, the structure may show the parent alone. Read-outs that look alike come from different tables or passages of the source.

Columns and labels:
Format in all cases: cell-based
Fusarium roseum (FUS) = assay: In-vitro plant fungicide test; settings: Fusarium sambucinum; for inhibition of growth at 1.5 ppm: read-out: % Control at (ppm) indicated FUS, 1.5 ppm; for inhibition of growth at 3 ppm: read-out: % Control at (ppm) indicated FUS, 3 ppm; for inhibition of growth at 6 ppm: read-out: % Control at (ppm) indicated FUS, 6 ppm; for inhibition of growth at 12 ppm: read-out: % Control at (ppm) indicated FUS, 12 ppm; for inhibition of growth at 0.2 ppm: read-out: % Control at (ppm) indicated FUS, .2 ppm; for inhibition of growth at 0.4 ppm: read-out: % Control at (ppm) indicated FUS, .4 ppm; for inhibition of growth at 0.8 ppm: read-out: % Control at (ppm) indicated FUS, .8 ppm
[1] = tested on: Cochliobolus sativus (HEL); assay: In-vitro plant fungicide test; settings: Bipolaris sorokiniana; for inhibition of growth at 0.2 ppm: .2 ppm; for inhibition of growth at 0.4 ppm: .4 ppm; for inhibition of growth at 0.8 ppm: .8 ppm
COL = assay: In-vitro plant fungicide test; parameters: inhibition of growth: concentration or dose not given beside the values; settings: Table IVb, read-out: % Control at (ppm) indicated COL; for inhibition of growth at 0.2 ppm: .2 ppm; for inhibition of growth at 0.4 ppm: .4 ppm; for inhibition of growth at 0.8 ppm: .8 ppm
THREE FUNGI = assay: MIC test against three fungi in Mycophile Broth, pH 5.0, read after 8 days (Table VII); settings: 192 h
PSH = assay: In-vitro plant fungicide test; settings: Table IVb, read-out: % Control at (ppm) indicated PSH; for inhibition of growth at 0.2 ppm: .2 ppm; for inhibition of growth at 0.4 ppm: .4 ppm; for inhibition of growth at 0.8 ppm: .8 ppm
7 FUNGI = assay: Microbicides broad spectrum secondary test against 7 fungi (Table V); parameters: key: 1= no growth; 0= growth of the indicated fungi at dose indicated in ppm; settings: Mycophile agar, pH 5.0; for ANIG growth: Aspergillus niger; for APUL growth: Aureobasidium pullulans; for CRES growth: Cladosporium resinae; for GTRA growth: Gloeophyllum trabeum; for PFUN growth: Penicillium funiculosum; for RRUB growth: Rhodotorula rubra; for SSER growth: Sacharomyces cerevisiae
Method: In the case of fungi, the spores are harvested by pipetting water onto the slant and dislodging the spores with a sterile loop. The cell/spore suspension is standardized by controlling incubation time, temperature, and the volume of the diluent. The suspension is then used to inoculate the vessels containing the broth compound. […] The results of the minimum inhibitory concentration (MIC) tests of compounds of this invention are shown in Tables IIIa IIIb, IIIc, V, VI, VII, and VIII against the microorganisms shown in Table IX. [table]

[2] = tested on: Aureobasidium pullulans (APUL); assay: Minimum inhibitory concentration (MIC), broth two-fold serial dilution test; settings: Aureobasidium pullulans, read-out: MIC (F) APUL, M9G (minimal salts media with glucose); Table IIIc, iodopropargyl esters of peptides
[3] = read-out: % Control at 25 ppm FUS, 25 ppm, Table IVa, *=Phytotoxic
[4] = read-out: % Control at (ppm) indicated FUS, 25 ppm, Table IVb
[5] = Table IVb, read-out: % Control at (ppm) indicated HEL
[6] = Table IVa, *=Phytotoxic, read-out: % Control at 25 ppm HEL

CC(C)(C)OC(=O)NCC(=O)OCC#CI [Compound 1, N-t-butoxycarbonylglycine iodopropargyl ester]
75%: inhibition of growth at 3 ppm (Fusarium roseum (FUS); Table IVb) | inhibition of growth at 6 ppm [1, 5] | inhibition of growth at 0.8 ppm (PSH)
1: ANIG growth (7 FUNGI; 5 PPM) | ANIG growth (7 FUNGI; 25 PPM) | APUL growth (7 FUNGI; 25 PPM) | CRES growth (7 FUNGI; 25 PPM) | GTRA growth (7 FUNGI; 1 PPM) | GTRA growth (7 FUNGI; 5 PPM) | GTRA growth (7 FUNGI; 25 PPM) | PFUN growth (7 FUNGI; 25 PPM) | RRUB growth (7 FUNGI; 25 PPM) | SSER growth (7 FUNGI; 25 PPM)
100%: inhibition of growth at 25 ppm (Fusarium roseum (FUS); [3]) | inhibition of growth at 6 ppm (Fusarium roseum (FUS); Table IVb) | inhibition of growth at 12 ppm (Fusarium roseum (FUS); Table IVb) | inhibition of growth at 25 ppm (Fusarium roseum (FUS); [4]) | inhibition of growth at 25 ppm [1, 6] | inhibition of growth at 25 ppm [1, 5] | inhibition of growth at 1.5 ppm (PSH) | inhibition of growth at 6 ppm (PSH) | inhibition of growth at 25 ppm (PSH; 25 ppm)
0: ANIG growth (7 FUNGI; 0.2 PPM) | ANIG growth (7 FUNGI; 1 PPM) | APUL growth (7 FUNGI; 0.2 PPM) | APUL growth (7 FUNGI; 1 PPM) | APUL growth (7 FUNGI; 5 PPM) | CRES growth (7 FUNGI; 0.2 PPM) | CRES growth (7 FUNGI; 1 PPM) | CRES growth (7 FUNGI; 5 PPM) | GTRA growth (7 FUNGI; 0.2 PPM) | PFUN growth (7 FUNGI; 0.2 PPM) | PFUN growth (7 FUNGI; 1 PPM) | PFUN growth (7 FUNGI; 5 PPM) | RRUB growth (7 FUNGI; 0.2 PPM) | RRUB growth (7 FUNGI; 1 PPM) | RRUB growth (7 FUNGI; 5 PPM) | SSER growth (7 FUNGI; 0.2 PPM) | SSER growth (7 FUNGI; 1 PPM) | SSER growth (7 FUNGI; 5 PPM)
3.2 µg/mL: MIC (THREE FUNGI; Aspergillus niger, serial dilutions from 50 ppm, read after 8 days of incubation, read-out: MIC ANIG)
1.6 µg/mL: MIC (THREE FUNGI; Gloeophyllum trabeum, serial dilutions from 50 ppm, read after 8 days of incubation, read-out: MIC GTRA)
0%: inhibition of growth at 1.5 ppm (Fusarium roseum (FUS); Table IVb) | inhibition of growth at 0.2 ppm (Fusarium roseum (FUS); Table IVb) | inhibition of growth at 0.4 ppm (Fusarium roseum (FUS); Table IVb) | inhibition of growth at 0.8 ppm (Fusarium roseum (FUS); Table IVb) | inhibition of growth at 1.5 ppm [1, 5] | inhibition of growth at 0.2 ppm [1, 5] | inhibition of growth at 0.4 ppm [1, 5] | inhibition of growth at 0.8 ppm [1, 5] | inhibition of growth at 1.5 ppm (COL) | inhibition of growth at 3 ppm (COL) | inhibition of growth at 6 ppm (COL) | inhibition of growth at 0.2 ppm (COL) | inhibition of growth at 0.4 ppm (COL) | inhibition of growth at 0.8 ppm (COL) | inhibition of growth at 0.2 ppm (PSH) | inhibition of growth at 0.4 ppm (PSH)
12.5 µg/mL: MIC (THREE FUNGI; Aureobasidium pullulans, serial dilutions from 50 ppm, read after 8 days of incubation, read-out: MIC APUL)
95%: inhibition of growth at 12 ppm (COL; 12 ppm) | inhibition of growth at 25 ppm (COL; 25 ppm)

C[C@H](N)C(=O)N[C@@H](COCc1ccccc1)C(=O)OCC#CI [Compound 19, L-alanyl-O-benzyl-L-serine iodopropargyl ester trifluoroacetate]
50 µg/mL: MIC (THREE FUNGI; Aspergillus niger, pH 5, read-out: MIC ANIG, Aspergillus niger, serial dilutions from 50 ppm, read after 8 days of incubation) | MIC (THREE FUNGI; Aureobasidium pullulans, pH 5, read-out: MIC APUL, Aureobasidium pullulans, serial dilutions from 50 ppm, read after 8 days of incubation) | MIC (THREE FUNGI; Gloeophyllum trabeum, pH 5, read-out: MIC GTRA, Gloeophyllum trabeum, serial dilutions from 50 ppm, read after 8 days of incubation)
0%: inhibition of growth at 1.5 ppm (Fusarium roseum (FUS); Table IVb) | inhibition of growth at 3 ppm (Fusarium roseum (FUS); Table IVb) | inhibition of growth at 6 ppm (Fusarium roseum (FUS); Table IVb) | inhibition of growth at 12 ppm (Fusarium roseum (FUS); Table IVb) | inhibition of growth at 25 ppm (Fusarium roseum (FUS); [4]) | inhibition of growth at 0.2 ppm (Fusarium roseum (FUS); Table IVb) | inhibition of growth at 0.4 ppm (Fusarium roseum (FUS); Table IVb) | inhibition of growth at 0.8 ppm (Fusarium roseum (FUS); Table IVb) | inhibition of growth at 1.5 ppm [1, 5] | inhibition of growth at 6 ppm [1, 5] | inhibition of growth at 0.2 ppm [1, 5] | inhibition of growth at 0.4 ppm [1, 5] | inhibition of growth at 0.8 ppm [1, 5] | inhibition of growth at 1.5 ppm (COL) | inhibition of growth at 3 ppm (COL) | inhibition of growth at 6 ppm (COL) | inhibition of growth at 0.2 ppm (COL) | inhibition of growth at 0.4 ppm (COL) | inhibition of growth at 0.8 ppm (COL) | inhibition of growth (COL) | inhibition of growth at 0.2 ppm (PSH) | inhibition of growth at 0.4 ppm (PSH) | inhibition of growth at 0.8 ppm (PSH)
50%: inhibition of growth at 1.5 ppm (PSH)
< 0.8 µg/mL: MIC [2]
100%: inhibition of growth at 25 ppm (Fusarium roseum (FUS); [3]) | inhibition of growth at 25 ppm [1, 6] | inhibition of growth at 25 ppm [1, 5] | inhibition of growth at 6 ppm (PSH)
